Biological target: T1, human CRHR2-alpha (Homo sapiens, UniProt Q13324)
T1 sequence (Q13324 1-411): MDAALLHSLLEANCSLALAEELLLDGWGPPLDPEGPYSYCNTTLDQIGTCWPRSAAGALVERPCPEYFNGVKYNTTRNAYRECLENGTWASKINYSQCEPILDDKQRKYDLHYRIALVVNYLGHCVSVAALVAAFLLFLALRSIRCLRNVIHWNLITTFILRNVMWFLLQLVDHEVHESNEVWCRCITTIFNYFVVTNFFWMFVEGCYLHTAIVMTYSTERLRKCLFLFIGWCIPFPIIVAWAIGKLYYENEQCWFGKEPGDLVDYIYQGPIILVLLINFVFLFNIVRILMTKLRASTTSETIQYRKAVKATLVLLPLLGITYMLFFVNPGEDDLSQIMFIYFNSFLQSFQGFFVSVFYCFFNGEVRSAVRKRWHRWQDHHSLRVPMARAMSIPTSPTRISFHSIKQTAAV
Assay: cAMP functional assay for human CRHR2 (LANCE Ultra cAMP, TR-FRET)
Type: cell-based
Conditions: CHO-K1 cells expressing human CRHR2-alpha, agonist human urocortin2 at EC80, cAMP; read-out: IC50 against CRHR2
How it was run: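 CHO-K1 cells stably expressing each receptor, serum-starved and cryopreserved, were preincubated with compound 30 min at 25° C in HBSS buffer with 0.5 mM IBMX, pH 7.4, then stimulated 30 min with EC80 agonist (urocortin2 for CRHR2, CRF for CRHR1). cAMP read by TR-FRET; IC50 from percent-inhibition curves.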

`CNC(=O)c1ccc(-n2c(=O)n(C[C@H]3CC[C@H](NC(=O)c4cc(Cl)cnc4C)CC3)c3cccc(F)c32)cn1` [Example 235, 5-(3-(((1r,4r)-4-(5-chloro-2-methylnicotinamido)cyclo-hexyl)methyl)-7-fluoro-2-oxo-2,3-dihydro-1H-benzo[d]imidazol-1-yl)-N-methylpicolinamide] gave an IC50 of under 300 nM.

`COc1ccc(-n2c(=O)n(C[C@H]3CC[C@H](NC(=O)c4cc(Cl)cnc4Cl)CC3)c3ccccc32)cn1` [Example 237, 2,5-dichloro-N-((1r,4r)-4-((3-(6-methoxypyridin-3-yl)-2-oxo-2,3-dihydro-1H-benzo[d]imidazol-1-yl)methyl)cyclo-hexyl)nicotinamide] was tested, and the IC50 was under 300 nM.

With `Cc1ncc(Cl)cc1C(=O)N[C@H]1CC[C@H](Cn2c(=O)n(-c3cccc4c3CCC4)c3ccncc32)CC1` [Example 238, 5-chloro-N-((1r,4r)-4-((1-(2,3-dihydro-1H-inden-4-yl)-2-oxo-1H-imidazo[4,5-c]pyridin-3(2H)-yl)methyl)cyclohexyl)-2-methylnicotinamide] the IC50 was under 300 nM.

`Cc1ncc(Cl)cc1C(=O)N[C@H]1CC[C@H](Cn2c(=O)n(-c3cccnc3C#N)c3ccccc32)CC1` [Example 239, 5-chloro-N-((1r,4r)-4-((3-(2-cyanopyridin-3-yl)-2-oxo-2,3-dihydro-1H-benzo[d]imidazol-1-yl)methyl)cyclohexyl)-2-methylnicotinamide] showed an IC50 of under 300 nM.

`CNC(=O)c1ccc(-n2c(=O)n(C[C@H]3CC[C@H](NC(=O)c4cc(Cl)cnc4C(F)(F)F)CC3)c3ccccc32)cn1` [Example 240, 5-(3-(((1r,4r)-4-(5-chloro-2-(trifluoromethyl)nicotina-mido)cyclohexyl)methyl)-2-oxo-2,3-dihydro-1H-benzo [d]imidazol-1-yl)-N-methylpicolinamide] gave an IC50 of under 300 nM.

`Cc1ncc(Cl)cc1C(=O)N[C@H]1CC[C@H](Cn2c(=O)n(Cc3ccccc3C#N)c3ccccc32)CC1` [Example 241, 5-chloro-N-((1r,4r)-4-((3-(2-cyanobenzyl)-2-oxo-2,3-dihydro-1H-benzo[d]imidazol-1-yl)methyl)cyclohexyl)-2-methylnicotinamide] showed an IC50 of under 300 nM.

With `Cc1ncc(Cl)cc1C(=O)N[C@H]1CC[C@H](Cn2c(=O)n(Cc3cccc(C#N)c3)c3ccccc32)CC1` [Example 242, 5-chloro-N-((1r,4r)-4-((3-(3-cyanobenzyl)-2-oxo-2,3-dihydro-1H-benzo[d]imidazol-1-yl)methyl)cyclohexyl)-2-methylnicotinamide] the IC50 was under 300 nM.

Molecule `Cc1ncc(Cl)cc1C(=O)N[C@H]1CC[C@H](Cn2c(=O)n(-c3ccc4c(C(N)=O)noc4c3)c3ccccc32)CC1` [Example 243, 6-(3-(((1r,4r)-4-(5-chloro-2-methylnicotinamido)cyclohexyl)methyl)-2-oxo-2,3-dihydro-1H-benzo[d]imidazol-1-yl)benzo[d]isoxazole-3-carboxamide] has an IC50 of under 300 nM.

`CNC(=O)c1noc2cc(-n3c(=O)n(C[C@H]4CC[C@H](NC(=O)c5cc(Cl)cnc5C)CC4)c4ccccc43)ccc12` [Example 244, 6-(3-(((1r,4r)-4-(5-chloro-2-methylnicotinamido)cyclohexyl)methyl)-2-oxo-2,3-dihydro-1H-benzo[d]imidazol-1-yl)-N-methylbenzo[d]isoxazole-3-carboxamide] showed an IC50 of under 300 nM.

Work on `Cc1ncc(Cl)cc1C(=O)N[C@H]1CC[C@H](Cn2c(=O)n(-c3ccc4c(C(=O)N(C)C)noc4c3)c3ccccc32)CC1` [Example 245, 6-(3-(((1r,4r)-4-(5-chloro-2-methylnicotinamido)cyclohexyl)methyl)-2-oxo-2,3-dihydro-1H-benzol[d]imidazol-1-yl)-N,N-dimethylbenzo[d]isoxazole-3-carboxamide] yielded an IC50 of under 300 nM.

`COc1cccc(-n2c(=O)n(C[C@H]3CC[C@H](NC(=O)c4cc(Cl)cnc4C)CC3)c3ccccc32)c1C#N` [Example 246, 5-chloro-N-((1r,4r)-4-((3-(2-cyano-3-methoxyphenyl)-2-oxo-2,3-dihydro-1H-benzo [d]imidazol-1-yl)methyl)cyclohexyl)-2-methyl-nicotinamide] was tested, and the IC50 was under 300 nM.

`Cc1ccc(-n2c(=O)n(C[C@H]3CC[C@H](NC(=O)c4cc(Cl)cnc4C)CC3)c3ccccc32)c(C#N)c1` [Example 247, 5-chloro-N-((1r,4r)-4-((3-(2-cyano-4-methylphenyl)-2-oxo-2,3-dihydro-1H-benzo[d]imidazol-1-yl)methyl)cyclo-hexyl)-2-methylnicotinamide] was tested, and the IC50 was under 300 nM.

With `Cc1ncc(Cl)cc1C(=O)N[C@H]1CC[C@H](Cn2c(=O)n(-c3cnccc3C#N)c3ccccc32)CC1` [Example 248, 5-chloro-N-((1r,4r)-4-((3-(4-cyanopyridin-3-yl)-2-oxo-2,3-dihydro-1H-benzo[d]imidazol-1-yl)methyl)cyclohexyl)-2-methylnicotinamide] the IC50 was under 300 nM.

For `Cc1ncc(Cl)cc1C(=O)N[C@H]1CC[C@H](Cn2c(=O)n(-c3ccncc3C#N)c3ccccc32)CC1` [Example 249, 5-chloro-N-((1r,4r)-4-((3-(3-cyanopyridin-4-yl)-2-oxo-2,3-dihydro-1H-benzo[d]imidazol-1-yl)methyl)cyclohexyl)-2-methylnicotinamide], the IC50 was under 300 nM.

Work on `CCn1ncc2cc(-n3c(=O)n(C[C@H]4CC[C@H](NC(=O)c5cc(Cl)cnc5C)CC4)c4ccccc43)cnc21` [Example 250, 5-chloro-N-((1r,4r)-4-((3-(1-ethyl-1H-pyrazolo[3,4-b]pyridin-5-yl)-2-oxo-2,3-dihydro-1H-benzo[d]imidazol-1-yl)methyl)cyclo-hexyl)-2-methylnicotinamide] yielded an IC50 of under 300 nM.

Molecule `COc1ccc(Cn2c(=O)n(C[C@H]3CC[C@H](NC(=O)c4cc(Cl)cnc4C)CC3)c3cccnc32)c(OC)c1` [Example 251, 5-chloro-N-((1r,4r)-4-((3-(2,4-dimethoxybenzyl)-2-oxo-2,3-dihydro-1H-imidazo[4,5-b]pyridin-1-yl)methyl)cyclo-hexyl)-2-methylnicotinamide] has an IC50 of under 300 nM.

With `Cc1ncc(Cl)cc1C(=O)N[C@H]1CC[C@H](Cn2c(=O)n(-c3cnc4c(cnn4CC4CC4)c3)c3ccccc32)CC1` [Example 252, 5-chloro-N-((1r,4r)-4-((3-(1-(cyclopropylmethyl)-1H-pyrazolo[3,4-b]pyridin-5-yl)-2-oxo-2,3-dihydro-1H-benzo [d]imidazol-1-yl)methyl)cyclo-hexyl)-2-methylnicotinamide] the IC50 was under 300 nM.

Work on `Cc1ncc(Cl)cc1C(=O)N[C@H]1CC[C@H](Cn2c(=O)n(-c3cnc4c(cnn4CCO)c3)c3ccccc32)CC1` [Example 253, 5-chloro-N-((1r,4r)-4-((3-(1-(2-hydroxyethyl)-1H-pyrazolo[3,4-b]pyridin-5-yl)-2-oxo-2,3-dihydro-1H-benzo[d]imidazol-1-yl)methyl)cyclohexyl)-2-methylnicotinamide] yielded an IC50 of under 300 nM.

In the case of `CCn1cc2cc(-n3c(=O)n(C[C@H]4CC[C@H](NC(=O)c5cc(Cl)cnc5C)CC4)c4ccccc43)cnc2n1` [Example 254, 5-chloro-N-((1r,4r)-4-((3-(2-ethyl-2H-pyrazolo[3,4-b]pyridin-5-yl)-2-oxo-2,3-dihydro-1H-benzo[d]imidazol-1-yl)methyl)cyclohexyl)-2-methylnicotinamide], the IC50 is reported as under 300 nM.

Molecule `Cc1ncc(Cl)cc1C(=O)N[C@H]1CC[C@H](Cn2c(=O)n(-c3ccc4c(c3)nnn4C)c3ccccc32)CC1` [Example 255, 5-chloro-2-methyl-N-((1r,4r)-4-((3-(1-methyl-1H-benzo[d] [1,2,3]triazol-5-yl)-2-oxo-2,3-dihydro-1H-benzo[d]imidazol-1-yl)methyl)cyclohexyl) nicotinamide] has an IC50 of under 300 nM.

`Cc1ncc(Cl)cc1C(=O)N[C@H]1CC[C@H](Cn2c(=O)n(-c3ccccc3Cl)c3cccnc32)CC1` [Example 256, 5-chloro-N-((1r,4r)-4-((1-(2-chlorophenyl)-2-oxo-1H-imidazo[4,5-b]pyridin-3(2H)-yl)methyl)cyclohexyl)-2-methylnicotinamide] gave an IC50 of under 300 nM.

For `Cc1ncc(Cl)cc1C(=O)N[C@H]1CC[C@H](Cn2c(=O)n(-c3ccccc3C(F)(F)F)c3cccnc32)CC1` [Example 257, 5-chloro-2-methyl-N-((1r,4r)-4-((2-oxo-1-(2-(trifluoro-methyl)phenyl)-1H-imidazo [4,5-b]pyridin-3(2H)-yl)methyl)cyclohexyl)nicotinamide], the IC50 was under 300 nM.

`CNC(=O)c1ccc(-n2c(=O)n(C[C@H]3CC[C@H](NC(=O)c4cc(Cl)cnc4C)CC3)c3ccc(OC)cc32)cn1` [Example 258, 5-(3-(((1r,4r)-4-(5-chloro-2-methylnicotinamido)cyclo-hexyl)methyl)-6-methoxy-2-oxo-2,3-dihydro-1H-benzo [d]imidazol-1-yl)-N-methylpicolinamide] gave an IC50 of under 300 nM.

`COc1ccc(C#N)c(-n2c(=O)n(C[C@H]3CC[C@H](NC(=O)c4cc(Cl)cnc4C)CC3)c3ccccc32)c1` [Example 259, 5-chloro-N-((1r,4r)-4-((3-(2-cyano-5-methoxyphenyl)-2-oxo-2,3-dihydro-1H-benzo [d]imidazol-1-yl)methyl)cyclo-hexyl)-2-methylnicotinamide] gave an IC50 of under 300 nM.

For `Cc1n[nH]c2ccc(-n3c(=O)n(C[C@H]4CC[C@H](NC(=O)c5cc(Cl)cnc5C(F)(F)F)CC4)c4ccccc43)cc12` [Example 260, 5-chloro-N-((1r,4r)-4-((3-(3-methyl-1H-indazol-5-yl)-2-oxo-2,3-dihydro-1H-benzo[d]imidazol-1-yl)methyl)cyclohexyl)-2-(trifluoromethyl)nicotinamide], the IC50 was under 300 nM.

From US11802120B2, “Fused cyclic urea derivatives as CRHR2 antagonist” (RaQualia Pharma Inc., priority 2018, dated 2023)
